Experimental data published in ChEMBL document CHEMBL1201862, “PubChem BioAssay data set” (2004).
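Method: 48-hour compound exposure of cells in 96-well plates, five concentrations, linear interpolation of endpoints. GI50 is the concentration that inhibits growth by half.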 The source made the active and inactive calls. Rule as the data show it: active = GI50 up to about 1.1 µM and inactive = higher.

Columns and labels:
Assay in all cases: growth of human tumour cells (NCI), 48 h
OVCAR-5 = test system: OVCAR-5
NCI-H460 = test system: NCI-H460
A549 = test system: A549
SR = test system: SR
UO-31 = test system: UO-31
K562 = test system: K562
HOP-62 = test system: HOP-62
TK-10 = test system: TK-10
OVCAR-3 = test system: OVCAR-3
SW-620 = test system: SW-620
RXF 393 = test system: RXF 393
HCC 2998 = test system: HCC 2998
MOLT-4 = test system: MOLT-4
NCI/ADR-RES = test system: NCI/ADR-RES
LOX IMVI = test system: LOX IMVI
RPMI-8226 = test system: RPMI-8226

Measured: GI50

Cc1cn(C2CC(O)C(COC(=O)NCCC(F)(F)C(F)(F)C(F)(F)C(F)(F)F)O2)c(=O)[nH]c1=O (stereo unspecified)
inactive: OVCAR-5 > 100 µM | NCI-H460 > 100 µM | A549 > 100 µM | SR > 100 µM | UO-31 > 100 µM | K562 > 100 µM | HOP-62 > 100 µM | TK-10 > 100 µM | OVCAR-3 > 100 µM | SW-620 > 100 µM | RXF 393 78.5 µM | HCC 2998 > 100 µM | MOLT-4 > 100 µM

Cc1cccc(C)c1NC(=O)/C(Cc1nc2ccc([N+](=O)[O-])cc2nc1O)=N\NC(N)=O
inactive: OVCAR-5 > 100 µM | NCI-H460 > 100 µM | NCI/ADR-RES 85.5 µM | A549 > 100 µM | UO-31 45.3 µM | K562 39.7 µM | LOX IMVI 22.1 µM | TK-10 > 100 µM | RPMI-8226 37.9 µM | OVCAR-3 > 100 µM | SW-620 52.5 µM | HCC 2998 > 100 µM | MOLT-4 31.6 µM

Nc1ncnc2c1nnn2C1C=CC(CP(=O)(O)O)C1 (stereo unspecified)
inactive: OVCAR-5 > 100 µM | NCI-H460 > 100 µM | NCI/ADR-RES > 100 µM | A549 > 100 µM | UO-31 > 100 µM | HOP-62 > 100 µM | LOX IMVI > 100 µM | TK-10 > 100 µM | RPMI-8226 > 100 µM | OVCAR-3 > 100 µM | SW-620 > 100 µM | RXF 393 > 100 µM | HCC 2998 > 100 µM | MOLT-4 > 100 µM

COc1c(Cl)nc2ccccc2c1N=[N+]=[N-]
inactive: OVCAR-5 > 100 µM | NCI-H460 > 100 µM | A549 > 100 µM | SR 80 µM | UO-31 17.3 µM | K562 83.9 µM | HOP-62 39.7 µM | LOX IMVI 48.6 µM | TK-10 70 µM | RPMI-8226 95.7 µM | OVCAR-3 > 100 µM | SW-620 > 100 µM | RXF 393 30.1 µM | HCC 2998 > 100 µM | MOLT-4 19.2 µM

COc1ccc(-c2c(C#N)c(-c3ccc(C)cc3)n(NS(=O)(=O)c3ccc(C)cc3)c(=O)c2C#N)cc1
inactive: OVCAR-5 > 100 µM | NCI-H460 54.3 µM | NCI/ADR-RES 53.7 µM | A549 41 µM | K562 57 µM | HOP-62 39.7 µM | LOX IMVI 39.3 µM | TK-10 87.3 µM | RPMI-8226 17.3 µM | SW-620 49.5 µM | RXF 393 38.8 µM | HCC 2998 62.1 µM | MOLT-4 19.8 µM

CCOC(=O)[C@@]12CCC(C1=O)[C@](C)(O)C[C@@H]2c1ccccc1
inactive: OVCAR-5 80.9 µM | NCI-H460 39.2 µM | NCI/ADR-RES 29 µM | A549 50.4 µM | UO-31 > 100 µM | K562 30.4 µM | HOP-62 71.1 µM | LOX IMVI 48.6 µM | TK-10 > 100 µM | OVCAR-3 28.2 µM | SW-620 > 100 µM | RXF 393 29.3 µM | MOLT-4 30.5 µM
